# Results from publication PMC5736709, “Unravelling the specificity and mechanism of sialic acid recognition by the gut symbiont Ruminococcus gnavus” (Nature Communications, 2017).
# “Also recorded” adds a separate entry of the source.
# Experiments:
# [1] = target: RgCBM40 (Mediterraneibacter gnavus (Ruminococcus gnavus), UniProt A7B557); assay: ITC of sialoglycans binding to RgCBM40 wild type; parameters: species or system Ruminococcus gnavus ATCC 29149; conditions: RgCBM40 WT; for Kd: ITC in PBS, 115-230 μM protein in cell, syringe 10 mM sugar (25 mM for Neu5Ac), * = estimate only, Kd too high to determine; for -T∆S / ∆G / ∆H: ITC, SD of three results
# Protocol: (§1) Isothermal titration calorimetry (ITC) experiments were performed using the PEAQ-ITC system (Malvern, Malvern, UK) with a cell volume of 200 µl. Prior to titration protein samples were exhaustively dialysed into PBS. The ligand was dissolved in the dialysis buffer. The cell protein concentration was 115 µM (except for mutant I95A where it was 173 µM and the wild-type interaction with 6′SL where it was 230 µM) and the syringe ligand concentration was 10 mM (25 mM for Neu5Ac). Controls with titrant (sugar) injected into buffer only were subtracted from the data. Analysis was performed using Malvern software, using a single-binding site model. The stoichiometry of binding sites was set to 1.0 as this was evident from the crystal structure. Quantitative and most qualitative experiments were carried out in triplicate.
# [2] = target: T1, RgCBM40 I95A (Mediterraneibacter gnavus (Ruminococcus gnavus), UniProt A7B557, I95A); assay: ITC of sialoglycans binding to RgCBM40 mutant I95A; parameters: species or system Ruminococcus gnavus ATCC 29149; conditions: for Kd: 173 µM protein, syringe 10 mM sugar (25 mM for Neu5Ac), * = estimate only
# T1 sequence (A7B557 50-237 I95A): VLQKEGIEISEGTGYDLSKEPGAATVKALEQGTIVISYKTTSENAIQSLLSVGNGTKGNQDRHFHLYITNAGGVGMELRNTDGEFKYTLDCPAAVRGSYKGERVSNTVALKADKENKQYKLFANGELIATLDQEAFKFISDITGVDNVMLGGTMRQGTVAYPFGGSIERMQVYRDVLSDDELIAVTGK
# Protocol: (§2) Site directed mutagenesis of RgGH33 to introduce the D282A mutation in the active site was carried out using the QuikChange kit, following the manufacturer’s instructions, Agilent (Santa Clara, CA, USA). Site-directed mutants of RgCBM40; I95A, Y116A, E126A, R128A, R204A and double mutant R128A/R204A, were obtained from NZyTech (Lisbon, Portugal). The primers are listed in Supplementary Table 4. The integrity of the RgGH33 and RgCBM40 mutants was checked by circular dichroism (CD).
# as §1
# [3] = target: T2, RgCBM40 E126A (Mediterraneibacter gnavus (Ruminococcus gnavus), UniProt A7B557, E126A); assay: ITC of sialoglycans binding to RgCBM40 mutant E126A; parameters: species or system Ruminococcus gnavus ATCC 29149; conditions: for Kd: ITC
# T2 sequence (A7B557 50-237 E126A): T1 sequence (A7B557 50-237 I95A)
# Protocol: as §2, §1
# [4] = target: T3, RgCBM40 R128A (Mediterraneibacter gnavus (Ruminococcus gnavus), UniProt A7B557, R128A); assay: ITC of sialoglycans binding to RgCBM40 mutant R128A; parameters: species or system Ruminococcus gnavus ATCC 29149; conditions: for Kd: ITC
# T3 sequence (A7B557 50-237 R128A): T1 sequence (A7B557 50-237 I95A)
# Protocol: as §2, §1
# [5] = test system: RgCBM40 binding to LS174T MUC2; assay: ELISA of RgCBM40 binding to LS174T MUC2 in competition with sugars; parameters: species or system Ruminococcus gnavus ATCC 29149; conditions: RgCBM40 preincubated with 1 mM free sugar overnight at 4 °C; immobilised LS174T MUC2; A450
# Protocol: RgCBM40 binding to purified mucins was tested by ELISA. Mucins (100 μl of 10 μg ml^−1) were immobilised onto a high binding 96 well plate (Greiner, Stonehouse, UK) overnight at 4 °C. All subsequent steps were carried out for 1 h at room temperature. The plates were blocked with 3% (w/v) BSA, incubated with RgCBM40 (500 μg ml^−1), followed by an incubation with 1:5000 anti-RgNanH (raised in rabbit, Biogenes) then with 1:5000 anti-rabbit secondary antibody (raised in donkey) conjugated to peroxidase (GE Healthcare). Between each step, the plate was washed with 3 × 300 μl of PBS containing 0.05% (v/v) Tween 20 (PBST). Prior to detection, an additional wash step and 30 s incubation with PBST was carried out. Binding was detected using tetramethylbenzidine (TMB) visualisation solution (Biolegend, San Diego, CA, USA) which was incubated for 15 min. The reaction was stopped by addition of 2 M H2SO4 and absorbance measured at 450 nm using a plate-reader (Bench Marl Plus, Biorad), subtracting background readings at 570 nm. Negative controls including no RgCBM40 (subtracted from A450 value), no primary or no secondary antibody were carried out in parallel. For comparison between plates, values were normalised to the reading for LS174T MUC2 which was arbitrarily set at 100%. For enzymatic treatment of the mucin, LS174T MUC2 (2 mg ml^−1) was incubated with sialidases (2 µg ml^−1) overnight at 4 °C on a rotary wheel prior to immobilisation on the plate. For chemical treatment of mucin, LS174T MUC2 was incubated with 0.1 M trifluoroacetic acid (TFA) at 80 °C for 1 h, dialysed against ammonium bicarbonate (50 mM), lyophilised and redissolved in H2O. For the competition assays, RgCBM40 was incubated with 1 mM of free sugar overnight at 4 °C on a rotary wheel prior to addition to the ELISA plate as above. Experiments were carried out in triplicate.
# [6] = target: SpCBM40_NanC; parameters: method as in PMID 26370075; conditions: isolated S. pneumoniae SpCBM40_NanC ref 37; cited from earlier work
SMILES,Kd [1],-T∆S [1],∆G [1],∆H [1],-T∆S [2],∆G [2],∆H [2],Kd [2],Binding by ITC (in words) [3],Kd [3],Binding by ITC (in words) [4],Kd [4],Effect of free sugar on adherence of RgCBM40 to MUC2 [5],Kd [6]
"CC(=O)N[C@H]1[C@H]([C@H](O)[C@H](O)CO)O[C@@](O[C@H]2[C@@H](O)[C@@H](CO)O[C@@H](O[C@H]3[C@H](O)[C@@H](O)C(O)O[C@@H]3CO)[C@@H]2O)(C(=O)O)C[C@@H]1O (stereo partly drawn) [3′SL, α2-3 sialyllactose]",0.57 mM,1.47 ± 0.77 kcal/mol,-4.43 ± 0.05 kcal/mol,-5.90 ± 0.72 kcal/mol,0.97 ± 0.47 kcal/mol,-3.74 ± 0.04 kcal/mol,-4.71 ± 0.43 kcal/mol,1.82 mM,abolished,> 25 mM,abolished; also recorded: loss of binding,> 25 mM,significantly decreased,~1.5 mM
"CC(=O)N[C@H]1[C@H]([C@H](O)[C@H](O)CO)O[C@@](OC[C@H]2O[C@@H](O[C@H]3[C@H](O)[C@@H](O)C(O)O[C@@H]3CO)[C@H](O)[C@@H](O)[C@H]2O)(C(=O)O)C[C@@H]1O (stereo partly drawn) [6′SL, α2,6-sialyllactose]",1.7 mM,5.82 ± 0.48 kcal/mol,-3.78 ± 0.05 kcal/mol,-9.61 ± 0.44 kcal/mol,-0.12 ± 0.3 kcal/mol,-3.91 ± 0.07 kcal/mol,-3.79 ± 0.24 kcal/mol,1.37 mM,abolished,> 25 mM,abolished,> 25 mM,significantly decreased,~1.6 mM
